Laboratory results taken from paper PMC4032192 (Journal of Medicinal Chemistry, 2014).

Target: rat nNOS (Rattus norvegicus, UniProt P29476)
Experiment: oxyhemoglobin NO capture assay, rat nNOS
Type: biochemical

Sequence of rat nNOS (P29476 whole entry): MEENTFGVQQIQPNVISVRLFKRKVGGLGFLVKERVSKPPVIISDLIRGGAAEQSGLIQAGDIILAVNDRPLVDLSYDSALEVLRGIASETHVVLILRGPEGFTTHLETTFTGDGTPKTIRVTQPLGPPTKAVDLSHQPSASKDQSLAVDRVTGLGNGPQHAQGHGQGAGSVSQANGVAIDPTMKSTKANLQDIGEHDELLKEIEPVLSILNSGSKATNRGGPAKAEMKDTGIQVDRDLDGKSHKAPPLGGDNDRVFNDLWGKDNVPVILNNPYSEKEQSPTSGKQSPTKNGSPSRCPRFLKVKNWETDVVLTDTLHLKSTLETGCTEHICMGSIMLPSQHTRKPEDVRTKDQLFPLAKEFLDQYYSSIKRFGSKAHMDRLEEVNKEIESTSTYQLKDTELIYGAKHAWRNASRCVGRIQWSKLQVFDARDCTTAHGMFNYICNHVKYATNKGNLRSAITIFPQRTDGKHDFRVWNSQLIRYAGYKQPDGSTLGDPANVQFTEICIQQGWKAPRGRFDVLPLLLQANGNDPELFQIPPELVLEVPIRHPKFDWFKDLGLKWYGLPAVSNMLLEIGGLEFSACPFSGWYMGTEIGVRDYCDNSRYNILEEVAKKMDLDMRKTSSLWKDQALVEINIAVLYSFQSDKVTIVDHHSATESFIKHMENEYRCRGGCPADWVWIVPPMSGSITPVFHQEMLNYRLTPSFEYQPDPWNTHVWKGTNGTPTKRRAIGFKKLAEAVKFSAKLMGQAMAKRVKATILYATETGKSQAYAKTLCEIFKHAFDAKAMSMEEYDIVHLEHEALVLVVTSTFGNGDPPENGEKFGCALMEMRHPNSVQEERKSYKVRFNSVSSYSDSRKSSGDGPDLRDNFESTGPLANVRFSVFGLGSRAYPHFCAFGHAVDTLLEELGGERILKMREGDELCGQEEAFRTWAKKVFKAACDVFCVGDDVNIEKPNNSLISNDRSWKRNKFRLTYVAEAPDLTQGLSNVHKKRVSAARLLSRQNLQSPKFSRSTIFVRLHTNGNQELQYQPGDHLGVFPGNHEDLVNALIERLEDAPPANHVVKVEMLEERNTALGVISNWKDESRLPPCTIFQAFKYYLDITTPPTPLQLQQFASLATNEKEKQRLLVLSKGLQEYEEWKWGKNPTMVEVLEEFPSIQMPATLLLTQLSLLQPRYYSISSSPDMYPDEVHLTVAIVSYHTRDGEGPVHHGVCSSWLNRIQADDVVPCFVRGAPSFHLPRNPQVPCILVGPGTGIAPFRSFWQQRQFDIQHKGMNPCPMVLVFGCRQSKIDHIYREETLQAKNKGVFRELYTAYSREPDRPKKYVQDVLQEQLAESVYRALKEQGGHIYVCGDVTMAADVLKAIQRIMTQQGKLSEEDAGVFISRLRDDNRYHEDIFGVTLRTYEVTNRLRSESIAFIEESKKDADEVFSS

Row | Ki | SMILES
1 | ~0.1 µM | Cc1cc(N)nc(CCc2cccc(C(O)Cc3cc(C)cc(N)n3)c2)c1 (centres unmarked) [Compound 4]
2 | ~0.1 µM | Cc1cc(N)nc(CCc2cccc([C@H](N)Cc3cc(C)cc(N)n3)c2)c1 [Compound 3R, (R)-6-(2-Amino-2-(3-(2-(6-amino-4-methylpyridin-2-yl)ethyl)phenyl)ethyl)-4-methylpyridin-2-amine]
